These results are taken from patent US8314240B2, “Sulfonamide compounds or salts thereof” (Astellas Pharma Inc., priority 2008, dated 2012).

Data set [1] deals with T1, rat EP1 receptor (Rattus norvegicus, UniProt P70597).
T1 construct: expressed in transfected cells
T1 sequence (P70597 1-405): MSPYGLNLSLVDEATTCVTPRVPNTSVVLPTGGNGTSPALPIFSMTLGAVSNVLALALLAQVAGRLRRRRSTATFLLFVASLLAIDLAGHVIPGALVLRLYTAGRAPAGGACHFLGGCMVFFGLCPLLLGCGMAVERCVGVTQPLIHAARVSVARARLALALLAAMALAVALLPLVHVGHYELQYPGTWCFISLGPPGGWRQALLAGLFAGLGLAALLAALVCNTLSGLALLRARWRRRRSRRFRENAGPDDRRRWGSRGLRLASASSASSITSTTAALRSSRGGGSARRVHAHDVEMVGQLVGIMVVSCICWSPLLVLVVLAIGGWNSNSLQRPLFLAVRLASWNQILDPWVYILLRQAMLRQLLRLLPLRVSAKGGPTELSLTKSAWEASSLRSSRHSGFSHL
In words: Test to measure receptor antagonistic activity using EP1 receptor-expressing cells (PGE2-induced intracellular Ca change, FLIPR). The format is cell-based. The note with it: HEK293 cells stably expressing rat EP1 receptor, 100 nM PGE2. The protocol: Test Example 1 Test to Measure Receptor Antagonistic Activity Using EP1 Receptor-Expressing Cells
HEK293 cells (American Type Culture Collection) that stably expressed rat EP1 receptor were dispensed onto a 96-well poly-D-lysine-coated plate (product name: BIOCOAT, PDL96W black/clear, by Nippon Becton Dickinson) at 2×10^4 cells/well on the day before the experiment, and incubated overnight at 37° C. under 5% carbon dioxide (CO2) in a culture medium containing 10% fetal bovine serum (FBS) (product name: DMEM, Invitrogen). The culture medium was replaced with a loading buffer (a washing solution containing 4 μM of fluorescent-labeled indicator (product name: Fluo3-AM, Dojindo): Hank's balanced salt solution (HBSS), 20 mM 2-[4-(2-hydroxyethyl)-1-piperazinyl]ethanesulfonic acid (HEPES)-sodium hydroxide (NaOH), 2.5 mM Probenecid, and 0.1% bovine serum albumin (BSA)), and left to stand at room temperature for 3 hours, and the cells were washed using a plate washer (product name: ELx405, Bio-Tek Instruments, Inc.) in which the washing solution had been set up. The compound that had been preliminarily dissolved and diluted in the washing solution was added thereto, and set up in a system for measuring the intracellular calcium (Ca) concentration (product name: FLIPR, Molecular Devices, Inc.). After 5 minutes, PGE2 was added to a final concentration of 100 nM, and the change in intracellular Ca concentration was measured. The difference between a maximum value and a minimum value in the intracellular Ca concentration change was determined, and retained as measurement data. When a response with addition of 100 nM PGE2 was taken as 0% and a response with addition of a buffer was taken as 100%, the concentration causing 50% inhibition was determined as an IC50 value. Further, in the table, Ex represents Example numbers as described later.

The target in data set [2] is T2, CYP3A4 (Homo sapiens, UniProt P08684).
T2 construct: human liver microsome (0.1 mg protein/ml); from tissue; host or cells: human liver microsome
T2 sequence (P08684 whole entry): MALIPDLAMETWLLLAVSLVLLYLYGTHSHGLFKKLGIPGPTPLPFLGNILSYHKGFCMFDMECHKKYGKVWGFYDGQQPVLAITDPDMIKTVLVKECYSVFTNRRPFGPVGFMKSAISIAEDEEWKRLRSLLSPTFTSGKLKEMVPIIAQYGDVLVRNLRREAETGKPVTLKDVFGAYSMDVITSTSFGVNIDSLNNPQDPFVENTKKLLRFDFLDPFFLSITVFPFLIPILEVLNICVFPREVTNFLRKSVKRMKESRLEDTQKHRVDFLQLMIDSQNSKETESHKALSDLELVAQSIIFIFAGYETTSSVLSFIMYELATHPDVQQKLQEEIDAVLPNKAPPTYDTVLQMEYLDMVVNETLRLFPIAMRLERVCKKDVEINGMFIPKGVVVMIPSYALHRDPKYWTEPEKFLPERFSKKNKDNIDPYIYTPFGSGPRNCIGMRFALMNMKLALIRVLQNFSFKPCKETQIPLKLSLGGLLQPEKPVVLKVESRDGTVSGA
In words: Cytochrome P450 (CYP) 3A4 enzyme inhibition, Inhibition Test I. The format is in vitro ADME. The note with it: human liver microsomes, probe midazolam; human liver microsome 0.1 mg protein/ml, substrate midazolam, 37° C. 20 minutes; read-out: Inhibitory activity I (%). The protocol:
(§1) Test Example 4 Test on Cytochrome P450 (CYP) 3A4 Enzyme Inhibition (Evaluation of Drug Interaction)
(1) Inhibition Test I (Calculation of Inhibitory Activity I)
Using a 96-well plate, a substrate (midazolam), a test compound and human liver microsome (0.1 mg protein/ml) were incubated at 37° C. for 20 minutes in a 100 mM phosphate buffer containing 0.1 mM EDTA and 1 mM NADPH. Then, the reaction was stopped by adding an aqueous solution containing 80% acetonitrile. Thereafter, each sample was analyzed by LC/MS, and the inhibitory activity I was calculated using the following formula. Inhibitory Activity I(%)=100−Vi.I/V0.I×100
Vi,I: Metabolic rate of substrate in the presence of the test compound at a known concentration in the inhibition test I
V0,I: Metabolic rate of substrate in the absence of the test compound in the inhibition test I

Data set [3] in a line: Test on metabolic stability in human liver microsome. Type of data set: in vitro ADME. The note with it: human liver microsomes, pH 7.4; human liver microsome 0.2 mg protein/ml, 37° C. 15 minutes, in vitro clearance by integration plot. The protocol:
Test Example 5 Test on Metabolic Stability in Human Liver Microsome
Using a glass test tube, a test compound and human liver microsome (0.2 mg protein/ml) were incubated at 37° C. for 15 minutes in a 100 mM phosphate buffer (pH=7.4) containing 0.1 mM EDTA and 1 mM NADPH. Thereafter, the reaction was stopped by adding an aqueous solution containing 80% acetonitrile. Thereafter, each sample was analyzed by HPLC and the in vitro clearance (CLint) was calculated by an integration plot.
For orientation: Microsomes from liver hold many membrane-bound enzymes, among them those of drug oxidation.

Data set [4] deals with T2, CYP3A4. In words: Cytochrome P450 (CYP) 3A4 enzyme inhibition, Inhibition Test II (preincubation). The format is in vitro ADME. The note with it: human liver microsomes, pH 7.4, probe midazolam; human liver microsome 0.1 mg protein/ml, 30 minutes preincubation with test compound, then midazolam 20 minutes; read-out: Inhibitory activity II (%). On the procedure:
as §1
(2) Inhibition Test II (Calculation of Inhibitory Activity II)
Using a 96-well plate, a test compound and human liver microsome (0.1 mg protein/ml) were incubated at 37° C. for 30 minutes in a total amount of 145 μl of 100 mM phosphate buffer (pH=7.4) containing 0.1 mM EDTA and 1 mM NADPH. Then, midazolam as the substrate was added thereto and incubated at 37° C. for 20 minutes. After the incubation, the reaction was stopped by adding an aqueous solution containing 80% acetonitrile. Thereafter, each sample was analyzed by LC/MS, and the inhibitory activity II was calculated using the following formula. Inhibitory Activity II(%)=100−Vi,II/V0,II/(100-inhibitory activity I(%))×100×100
Vi,II: Metabolic rate of substrate in the presence of the test compound at a known concentration in the inhibition test II
V0,II: Metabolic rate of substrate in the absence of the test compound in the inhibition test II

pIC50: −log10 of the molar value.

On to `Cc1csc(S(=O)(=O)N(C[C@H](C)F)c2cc3c(cc2OCc2ccc(C(=O)O)c(F)c2)CCC3)n1` [Example 113], for which the pIC50 (as a rule, the IC50 on a negative log10 scale, so that one unit is a factor of ten) in data set [1] is 9.05.
`C[C@@H](F)CN(c1cc2c(cc1OCc1ccc(C(=O)O)cc1)CCC2)S(=O)(=O)c1ccccn1` [Example 102]: the results for the inhibition at 20 min in data set [2] and in data set [4] were 1% and 0%, respectively. Moreover, the CLint scaled (in general, a measure of how fast metabolising enzymes remove a compound, apart from limits set by blood flow) in data set [3] is 244 mL/min/kg. Besides, the pIC50 in data set [1] was 8.74.
`C[C@H](F)CN(c1cc2c(cc1OCc1ccc(C(=O)O)cc1)CCC2)S(=O)(=O)c1cccnc1` [Example 103]: the inhibition at 20 min in data set [2] was 12%; in data set [4] it was 7%. Also, the CLint scaled in data set [3] came to 228 mL/min/kg. In data set [1], this molecule gave a pIC50 of 9.40.
On to `Cc1csc(S(=O)(=O)N(CC(C)F)c2cc3c(cc2OCc2ccc(C(=O)O)s2)CCC3)n1` (stereo not shown) [Example 80], for which, in data set [3], the CLint scaled came out at 212 mL/min/kg. The same molecule gave a pIC50 in data set [1] of 9.07.
With `Cc1cc(OCc2ccc(C(=O)O)cc2)c(N(C[C@@H](C)CF)S(=O)(=O)c2ccccn2)cc1C` [Example 117], the inhibition at 20 min in data set [2] was 3%; in data set [4] it was 5%. The intrinsic metabolic clearance (CLint scaled) in data set [3] was 58 mL/min/kg. Besides, in data set [1], the pIC50 was 8.72.
In turn, `Cc1csc(S(=O)(=O)N(CC(C)F)c2cc3c(cc2OCc2ccc(C(=O)O)cc2C)CCC3)n1` (stereo not shown) [Example 66] had a pIC50 in data set [1] of 9.28.
Still for that read-out and setting: under `Cc1cc(C(=O)O)ccc1COc1cc2c(cc1N(CC(C)F)S(=O)(=O)c1cc(F)cc(F)c1)CCC2` (stereo not shown) [Example 63] stands 9.52.
Regarding `Cc1csc(S(=O)(=O)N(CC(C)F)c2cc(C)c(Cl)cc2OCc2ccc(C(=O)O)cc2)n1` (stereo not shown) [Example 71], the CLint scaled in data set [3] is 153 mL/min/kg. This molecule also had a negative logarithm of the IC50 (pIC50) in data set [1] of 9.49.
